Experimental data taken from paper PMC8300687, “A Fine-Tuned Lipophilicity/Hydrophilicity Ratio Governs Antibacterial Potency and Selectivity of Bifurcated Halogen Bond-Forming NBTIs” (Antibiotics, 2021).
Values after ≈ are worked out from the molar mass of the structure shown. Read-outs that look alike come from different tables or passages of the source. Values belong to the compound of their own block, whether it stands above or below them.

Experiments:
[1] = biological target: T1, S. aureus DNA gyrase (Staphylococcus aureus, UniProt P20831); conditions: cited from earlier work
T1 construct: purchased Inspiralis (Norwich, UK)

[2] = system: E. coli; design: method as in PMID 31140866; conditions: Figure 2, previous study ref 18; cited from earlier work
[3] = system: S. aureus; design: method as in PMID 31140866; conditions: Figure 2, previous study ref 18; cited from earlier work
[4] = Equilibrium solubility at pH 6.8; conditions: 37 °C, pH 6.8, aqueous buffer, thermodynamic from solid
Protocol: (§1) Prior to the measurements of solubility and permeability isocratic HPLC methods were developed. […] The individual method parameters for each compound are given in the Supplementary Materials Table S1.
The vials were then placed in a homogenizer (Next Advance Bullet Blender, Troy, NY, USA) for 5 min ad speed setting “2” after which they were kept in a thermostated shaker (Tehtnica HeatMix, Domel, Slovenia) at 37 °C and 1200 RPM for 24 h. […] Twenty µL of these solutions were injected for the HPLC analysis by the described methods (Supplementary Materials Table S1). External standards for calibration were made in a mobile phase with 5% acetonitrile in a range of 30–90 mg/L and injected at 20 µL injection volumes.

[5] = in vitro; conditions: PAMPA
Protocol: as §1
A 96-well precoated three-layer PAMPA plates (Corning® Gentest™ Pre-coated PAMPA Plate System, Corning, NY, USA) were used according to the manufacturer’s instructions and as described previously with 300 µL of the donor solutions in the bottom compartment and 200 µL of the acceptor solution (pH 7.4 PBS) in the upper compartment at 37 °C and a 4-h incubation time. The initial and end donor solutions were injected at a 5 µL injection volume. The initial donor solutions were also diluted 100-fold and injected at a 100 µL injection volume to serve as external references for the end acceptor solutions which were injected at the same injection volume. The permeability calculations were made with a manufacturer-provided Excel spreadsheet directly from the measured peak areas accounting for the relevant dilutions and injection volumes.

[6] = system: E. coli N43 (CGSC# 5583); assay: MIC broth microdilution, E. coli N43; assay type: cell-based; conditions: Escherichia coli, read-out: MIC E. coli N43 (CGSC# 5583)
Protocol: (§2) Antimicrobial testing was carried out by the broth microdilution method in 96-well plate format following the Clinical and Laboratory Standards Institute (CLSI) guidelines and European Committee on Antimicrobial Susceptibility Testing (EUCAST) recommendations. Bacterial suspension of specific bacterial strain equivalent to 0.5 McFarland turbidity standard was diluted with cation-adjusted Mueller Hinton broth with TES (Thermo Fisher Diagnostic, Landsmeer, The Netherlands), to obtain a final inoculum of 10^5 CFU/mL. Compounds dissolved in DMSO and inoculum were mixed together and incubated for 18–20 h at 35 °C. Suspensions of Mycobacterium sp. were prepared into a tube of Middelbrook 7H9 broth supplemented with 5% OADC (Thermo Scientific, Trek Diagnostic Systems, West Sussex, UK) and incubated for at least 10 days. After incubation the minimal inhibitory concentration (MIC) values were determined by visual inspection as the lowest dilution of compounds showing no turbidity. Tetracycline was used as a positive control on every assay plate.

[7] = system: E. coli (ATCC 25922); assay: MIC broth microdilution, E. coli ATCC 25922; assay type: cell-based; conditions: Escherichia coli, ATCC25922; read-out: MIC E. coli (ATCC 25922)
Protocol: as §2

Structure (SMILES): COc1ccc2ncc(F)c(C[C@H](O)[C@@H]3CC[C@@H](NCc4cc5c(nn4)OCCS5)CO3)c2n1 [ACT3870424]
IC50 ([1]; Table S2, supplement ref 4): 0.125 µM

Structure (SMILES): COc1ccc2nccc(NC(=O)C3CCC(NCc4cnn(-c5ccccc5)c4)CC3)c2c1 (stereo not shown) [Compound 131]
MIC E. coli [2]: 64 mg/L (≈ 140 µM)
IC50 ([1]; Table S2, supplement ref 1): 0.83 µM
MIC S. aureus [3]: 2 mg/L (≈ 4.39 µM)

Structure (SMILES): C[C@H]1O[C@@H](O[C@H]2[C@@H](O)C[C@H](O[C@H]3[C@@H](O)C[C@H](O[C@H]4CC[C@@]5(C)[C@H](CC[C@@H]6[C@@H]5C[C@@H](O)[C@]5(C)[C@@H](C7=CC(=O)OC7)CC[C@]65O)C4)O[C@@H]3C)O[C@@H]2C)C[C@H](O)[C@@H]1O [Di goxin, digoxin, reference compound]
solubility thermodynamic at 24 h [4]: 0.052 mg/mL (≈ 66.6 µM)
PAMPA permeability classification [low/high] [5]: int erm ediat e
Papp ([5]; pH 7.4): 5.8 nm/s

Structure (SMILES): O=c1ccc2ncc(=O)n3c2n1C[C@H]3CN1CCC(NCc2cc3c(cn2)OCCC3)CC1 [Gepotidacin, reference compound]
MIC [6]: 0.016 mg/L (≈ 0.0357 µM)
MIC [7]: 1 mg/L (≈ 2.23 µM)

solubility thermodynamic at 24 h [4]: 30.4 mg/mL (≈ 114000 µM)
Papp at 4 h [5]: > 27 nm/s
Papp at 4 h ([5]; pH 7.4): 42 nm/s
Structure (SMILES): COCCc1ccc(OCC(O)CNC(C)C)cc1 (stereo not shown) [Metoprolol, metoprolol, reference compound]

Structure (SMILES): Cn1c(=O)c2[nH]cnc2n(C)c1=O [Theophylli n, theophylline, reference compound]
solubility thermodynamic at 24 h [4]: 8.22 mg/mL (≈ 45600 µM)
